Laboratory results taken from patent US11331299B2, “Medicinal use of serrulatane diterpenes” (The University of Sydney, priority 2016, dated 2022).

What was measured:
BRDT(1) (h) bromodomain = biological target: T1, BRDT(1) (h) bromodomain (Homo sapiens, UniProt Q58F21); test: Epigenetic binding assay, Bromodomain; conditions: read-out: % Inhibition of Control Specific Binding
T1 construct: Bromodomain; Eurofins CEREP (France), contract laboratory

CBX1 (h) chromodomain = biological target: T2, CBX1 (h) chromodomain (Homo sapiens, UniProt P83916); test: Epigenetic binding assay, Chromodomain; conditions: read-out: % Inhibition of Control Specific Binding
T2 construct: Recognition and specificity determinants of the human cbx chromodomains; Eurofins CEREP (France), contract laboratory
T2 sequence (P83916 21-79 limits assumed): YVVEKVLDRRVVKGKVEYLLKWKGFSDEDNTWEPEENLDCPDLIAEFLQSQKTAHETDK

MLL3(h) complex = MLL3(h) complex (Homo sapiens, UniProt Q8NEZ4); test: Epigenetic enzyme assay, Methyltransferases (MTs); type: biochemical; conditions: for inhibition at 10 µM: read-out: % Inhibition of Control Values
SETD2(h) = SETD2(h) (Homo sapiens, UniProt Q9BYW2); test: Epigenetic enzyme assay, Methyltransferases (MTs); type: biochemical; conditions: for inhibition at 10 µM: read-out: % Inhibition of Control Values
Sequence of SETD2(h) (Q9BYW2 whole entry): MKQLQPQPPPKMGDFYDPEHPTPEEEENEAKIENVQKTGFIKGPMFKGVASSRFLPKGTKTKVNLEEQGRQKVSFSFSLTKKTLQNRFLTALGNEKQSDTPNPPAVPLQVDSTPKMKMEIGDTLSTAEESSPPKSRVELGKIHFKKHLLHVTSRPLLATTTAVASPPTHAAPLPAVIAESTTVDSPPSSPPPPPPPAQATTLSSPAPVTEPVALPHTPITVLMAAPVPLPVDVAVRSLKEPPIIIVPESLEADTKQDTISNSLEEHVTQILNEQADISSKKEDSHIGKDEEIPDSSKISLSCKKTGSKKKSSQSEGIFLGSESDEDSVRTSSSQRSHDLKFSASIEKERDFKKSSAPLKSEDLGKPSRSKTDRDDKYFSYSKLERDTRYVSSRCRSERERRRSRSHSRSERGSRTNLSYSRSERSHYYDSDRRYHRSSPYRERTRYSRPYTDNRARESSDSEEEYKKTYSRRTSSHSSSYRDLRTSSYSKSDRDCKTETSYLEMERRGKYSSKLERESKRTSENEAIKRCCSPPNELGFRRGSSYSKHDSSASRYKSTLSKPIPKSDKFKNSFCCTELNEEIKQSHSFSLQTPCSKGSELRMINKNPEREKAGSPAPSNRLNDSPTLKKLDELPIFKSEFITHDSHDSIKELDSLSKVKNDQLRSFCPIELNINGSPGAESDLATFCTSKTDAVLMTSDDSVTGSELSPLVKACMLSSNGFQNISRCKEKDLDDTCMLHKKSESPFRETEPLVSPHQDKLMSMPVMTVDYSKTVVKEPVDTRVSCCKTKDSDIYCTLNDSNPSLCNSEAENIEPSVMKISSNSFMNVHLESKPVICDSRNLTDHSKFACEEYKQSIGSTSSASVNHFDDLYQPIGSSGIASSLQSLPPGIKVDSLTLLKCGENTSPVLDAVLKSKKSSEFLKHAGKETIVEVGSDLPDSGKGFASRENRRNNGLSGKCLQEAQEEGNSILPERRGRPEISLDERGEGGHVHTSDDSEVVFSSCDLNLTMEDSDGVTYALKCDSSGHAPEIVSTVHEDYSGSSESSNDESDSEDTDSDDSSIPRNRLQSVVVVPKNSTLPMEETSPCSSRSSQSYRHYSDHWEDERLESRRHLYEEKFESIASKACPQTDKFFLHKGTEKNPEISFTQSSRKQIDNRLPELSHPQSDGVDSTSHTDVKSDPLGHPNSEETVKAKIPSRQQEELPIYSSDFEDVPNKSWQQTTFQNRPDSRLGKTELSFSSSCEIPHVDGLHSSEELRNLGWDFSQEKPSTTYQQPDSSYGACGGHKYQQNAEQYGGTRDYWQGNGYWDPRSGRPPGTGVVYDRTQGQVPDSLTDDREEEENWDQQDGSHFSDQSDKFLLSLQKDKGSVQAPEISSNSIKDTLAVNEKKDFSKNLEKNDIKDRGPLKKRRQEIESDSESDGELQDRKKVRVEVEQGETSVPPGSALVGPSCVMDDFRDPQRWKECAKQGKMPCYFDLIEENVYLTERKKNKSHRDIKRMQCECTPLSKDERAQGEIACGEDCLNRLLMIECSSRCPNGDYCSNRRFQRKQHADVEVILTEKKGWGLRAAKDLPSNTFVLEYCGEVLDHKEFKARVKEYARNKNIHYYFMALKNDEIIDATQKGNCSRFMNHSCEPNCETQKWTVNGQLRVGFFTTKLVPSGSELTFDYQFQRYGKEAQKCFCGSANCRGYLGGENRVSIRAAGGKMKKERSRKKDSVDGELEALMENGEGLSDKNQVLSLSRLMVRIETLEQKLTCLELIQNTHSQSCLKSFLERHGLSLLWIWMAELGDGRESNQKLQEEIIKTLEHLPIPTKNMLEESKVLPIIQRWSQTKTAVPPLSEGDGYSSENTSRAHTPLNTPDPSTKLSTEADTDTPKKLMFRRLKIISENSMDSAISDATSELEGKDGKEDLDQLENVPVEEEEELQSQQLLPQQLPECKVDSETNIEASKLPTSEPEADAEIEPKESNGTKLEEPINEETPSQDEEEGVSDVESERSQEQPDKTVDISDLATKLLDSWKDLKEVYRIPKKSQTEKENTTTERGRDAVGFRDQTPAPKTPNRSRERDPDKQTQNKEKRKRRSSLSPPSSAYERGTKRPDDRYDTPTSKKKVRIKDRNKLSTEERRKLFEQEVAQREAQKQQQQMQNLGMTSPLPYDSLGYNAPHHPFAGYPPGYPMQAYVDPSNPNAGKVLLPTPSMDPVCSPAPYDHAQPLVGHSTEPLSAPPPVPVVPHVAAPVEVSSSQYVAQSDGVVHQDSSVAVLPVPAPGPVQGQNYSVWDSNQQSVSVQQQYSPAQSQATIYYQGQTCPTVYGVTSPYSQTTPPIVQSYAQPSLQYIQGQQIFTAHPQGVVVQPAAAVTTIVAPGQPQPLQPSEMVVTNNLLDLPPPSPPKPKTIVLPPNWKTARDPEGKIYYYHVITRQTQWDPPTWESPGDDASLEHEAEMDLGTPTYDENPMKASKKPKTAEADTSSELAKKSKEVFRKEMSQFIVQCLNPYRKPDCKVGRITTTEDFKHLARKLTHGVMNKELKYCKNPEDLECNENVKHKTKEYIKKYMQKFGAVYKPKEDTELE

[1] = biological target: T3, IKK alpha(h) (substrate histone H3 full length) (Homo sapiens, UniProt O15111); test: Epigenetic enzyme assay, Kinases; type: biochemical; conditions: read-out: % Inhibition of Control Values
T3 sequence (O15111 1-745): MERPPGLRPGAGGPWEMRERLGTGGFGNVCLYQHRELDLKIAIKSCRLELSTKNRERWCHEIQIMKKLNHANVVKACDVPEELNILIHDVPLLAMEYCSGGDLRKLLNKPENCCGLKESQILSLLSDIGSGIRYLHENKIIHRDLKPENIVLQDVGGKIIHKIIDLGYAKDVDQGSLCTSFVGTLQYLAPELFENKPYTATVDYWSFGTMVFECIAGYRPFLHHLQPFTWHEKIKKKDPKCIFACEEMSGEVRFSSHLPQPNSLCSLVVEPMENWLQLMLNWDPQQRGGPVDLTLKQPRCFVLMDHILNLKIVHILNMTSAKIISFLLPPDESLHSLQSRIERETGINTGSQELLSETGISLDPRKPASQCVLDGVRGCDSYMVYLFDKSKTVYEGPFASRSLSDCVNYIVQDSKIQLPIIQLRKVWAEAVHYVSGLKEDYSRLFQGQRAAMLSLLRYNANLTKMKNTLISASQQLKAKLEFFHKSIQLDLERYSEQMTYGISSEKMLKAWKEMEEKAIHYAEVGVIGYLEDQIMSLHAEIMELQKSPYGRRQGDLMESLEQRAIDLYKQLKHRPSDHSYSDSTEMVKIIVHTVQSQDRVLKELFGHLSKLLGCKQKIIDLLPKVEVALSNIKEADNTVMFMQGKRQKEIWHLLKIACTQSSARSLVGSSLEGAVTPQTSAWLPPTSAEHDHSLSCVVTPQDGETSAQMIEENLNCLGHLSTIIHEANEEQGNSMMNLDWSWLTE

[2] = biological target: T4, Epidermal Growth Factor (EGF) (Homo sapiens, UniProt P00533); test: Epidermal Growth Factor (EGF) radio ligand binding; conditions: assay year 2015, read-out: % Control Response
T4 construct: Human A431 cells; endogenous in cells; host or cells: A431 cells
T4 sequence (P00533 25-1210): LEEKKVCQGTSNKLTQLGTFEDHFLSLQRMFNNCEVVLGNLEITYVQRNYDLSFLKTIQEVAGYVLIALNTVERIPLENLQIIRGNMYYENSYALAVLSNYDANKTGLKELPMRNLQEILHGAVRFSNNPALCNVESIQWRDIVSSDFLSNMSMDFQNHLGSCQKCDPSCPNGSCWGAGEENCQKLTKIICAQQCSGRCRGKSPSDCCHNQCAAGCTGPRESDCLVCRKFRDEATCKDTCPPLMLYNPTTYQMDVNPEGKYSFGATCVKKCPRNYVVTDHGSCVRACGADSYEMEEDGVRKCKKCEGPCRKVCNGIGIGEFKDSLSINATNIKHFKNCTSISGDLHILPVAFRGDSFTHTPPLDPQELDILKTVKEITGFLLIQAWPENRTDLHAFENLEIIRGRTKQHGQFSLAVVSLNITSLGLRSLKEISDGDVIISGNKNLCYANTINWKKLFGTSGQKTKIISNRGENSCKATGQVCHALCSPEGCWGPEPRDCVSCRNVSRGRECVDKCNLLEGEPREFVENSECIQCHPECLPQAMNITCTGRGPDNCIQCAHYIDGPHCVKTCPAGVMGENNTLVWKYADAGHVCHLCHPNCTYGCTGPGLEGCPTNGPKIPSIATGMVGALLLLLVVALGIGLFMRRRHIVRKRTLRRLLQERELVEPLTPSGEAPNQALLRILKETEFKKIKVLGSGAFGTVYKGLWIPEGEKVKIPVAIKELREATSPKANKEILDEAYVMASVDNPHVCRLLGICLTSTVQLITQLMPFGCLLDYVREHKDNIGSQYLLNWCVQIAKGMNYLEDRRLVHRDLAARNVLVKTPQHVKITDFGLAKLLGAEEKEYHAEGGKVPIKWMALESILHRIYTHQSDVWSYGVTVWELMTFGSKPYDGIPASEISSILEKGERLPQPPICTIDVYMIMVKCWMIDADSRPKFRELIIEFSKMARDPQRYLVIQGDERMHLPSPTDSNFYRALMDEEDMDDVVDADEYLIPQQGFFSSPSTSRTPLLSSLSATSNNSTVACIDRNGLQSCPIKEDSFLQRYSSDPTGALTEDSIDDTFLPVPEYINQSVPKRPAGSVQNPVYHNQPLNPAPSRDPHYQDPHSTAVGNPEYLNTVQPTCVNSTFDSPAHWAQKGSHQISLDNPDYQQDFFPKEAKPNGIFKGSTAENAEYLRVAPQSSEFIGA
Procedure: (§1) The in vitro pharmacological studies were conducted by Eurofins PanLab (Taiwan) using the parameters shown in Table 13 with respect to appropriate literature references.

HMG-CoA Reductase = biological target: T5, HMG-CoA Reductase (Homo sapiens, UniProt P04035); test: HMG-CoA Reductase; type: biochemical; conditions: assay year 2015, read-out: % Control Response
T5 construct: host or cells: E. coli
T5 sequence (P04035 426-888 limits assumed): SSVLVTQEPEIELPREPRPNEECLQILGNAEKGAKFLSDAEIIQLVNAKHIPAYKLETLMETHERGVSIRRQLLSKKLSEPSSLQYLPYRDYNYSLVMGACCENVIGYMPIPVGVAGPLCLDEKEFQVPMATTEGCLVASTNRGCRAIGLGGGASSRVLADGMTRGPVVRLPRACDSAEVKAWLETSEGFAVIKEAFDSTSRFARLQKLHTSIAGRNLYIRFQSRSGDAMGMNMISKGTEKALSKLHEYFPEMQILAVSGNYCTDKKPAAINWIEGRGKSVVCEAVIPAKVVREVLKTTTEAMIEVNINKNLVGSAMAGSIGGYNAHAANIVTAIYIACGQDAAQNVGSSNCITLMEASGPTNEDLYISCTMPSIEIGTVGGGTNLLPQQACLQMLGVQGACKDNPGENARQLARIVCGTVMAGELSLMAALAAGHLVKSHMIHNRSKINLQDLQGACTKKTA
Procedure: as §1

MDA-MB-415 = test: OncoPanel cell proliferation assay (10-day); type: cell-based, human; conditions: for EC50 / GI50 / IC50: Homo sapiens, MDA-MB-415, Breast; for EC50: read-out: Cell Count EC50; for GI50: read-out: Cell Count GI50; for IC50: read-out: Cell Count IC50

SMILES | inhibition at 10 µM (BRDT(1) (h) bromodomain) [%] | inhibition at 10 µM (CBX1 (h) chromodomain) [%] | inhibition at 10 µM (MLL3(h) complex) [%] | inhibition at 10 µM (SETD2(h)) [%] | inhibition at 10 µM [1] [%] | remaining activity at 10 µM [2] [%] | remaining activity at 10 µM (HMG-CoA Reductase) [%] | EC50 (MDA-MB-415) [µM] | GI50 (MDA-MB-415) [µM] | IC50 (MDA-MB-415) [µM] | other results
CC(C)=CCC[C@H](CO)[C@@H]1CC[C@@H](C)c2c1cc(C)c(O)c2O [Compound 1, 7,8,18-trihydroxyserrulat-14-ene] | 43 | 15 | -22 | -9 | 26 | -8 | 29 | 1.02 | 1 | 1.02 | Relative cell count (%) Mean (MDA-MB-415; 3.00E+00 microM): 1.3%; Relative cell count (%) Mean (MDA-MB-415; 3.00E+01 microM): 0.2%; Relative cell count (%) Mean (MDA-MB-415; 3.01E−01 microM): 100.2%; Relative cell count (%) Mean (MDA-MB-415; 3.01E−02 microM): 93.4%; Relative cell count (%) Mean (MDA-MB-415; 3.02E−03 microM): 100.0%; Relative cell count (%) Mean (MDA-MB-415; 9.49E+00 microM): 0.3%; Relative cell count (%) Mean (MDA-MB-415; 9.51E−01 microM): 62.3%; Relative cell count (%) Mean (MDA-MB-415; 9.52E−02 microM): 98.1%; Relative cell count (%) Mean (MDA-MB-415; 9.53E−03 microM): 98.0%; Relative cell count (%) Mean (MDA-MB-415; 9.55E−04 microM): 90.2%
CC(C)=CCC[C@@H]1C(O)Oc2c(C)cc(O)c3c2[C@H]1CC[C@H]3C (stereo partly drawn) [Compound 2, 5,18-epoxyserrulat-14-en-8,18-diol] | 23 | 0 | -21 | -4 | 28 | -9 | 27 | 11.5 | 10.8 | 11.5 | –
CC(C)=CCC[C@@H]1COc2c(C)cc(O)c3c2[C@H]1CC[C@H]3C [Compound 3, 5,18-epoxy-8-hydroxyserrulat-14-ene] | 29 | -1 | -33 | -11 | 14 | 4 | 24 | – | – | – | –
CC(C)=CCC[C@H](C)[C@@H]1CC[C@@H](C)c2c1cc(C)c(O)c2O [Compound 4, 7,8-dihydroxyserrulat-14-ene] | – | – | – | – | – | – | – | 28.5 | 27.4 | 28.5 | –
Nc1ncnc2c1ncn2[C@@H]1O[C@H](CSCC[C@H](N)C(=O)O)[C@@H](O)[C@H]1O [SAH] | – | – | – | – | – | – | – | – | – | – | IC50 (MLL3(h) complex; read-out: Reference IC50): 9 µM; IC50 (SETD2(h); read-out: Reference IC50): 1.2 µM
